Test results as given in patent publication US4456593A, “Ristocetin .psi.-aglycone as an antibacterial agent” (Abbott Laboratories, priority 1982, dated 1984).
Several values for one entry are separate records, joined by “and”; a condition that tells them apart may be missing. Equal entries are not always repeated.

Tests used:
S. aureus = assay: Anti-infective Test - Cure of Acute Mouse Bacterial Infection (mouse protection), S. aureus; type: in vivo; details: for CD50 (curative dose50, total dose required to cure half the animals): dosed 1 and 5 hours post-infection, 95 percent confidence limits in brackets
Description: (§1) Anti-infective Test--Cure of Acute Mouse Bacterial Infection
(§2) To determine the ability of potential anti-microbial agents to cure mice of an otherwise lethal infection.
Bacterial strains used in this test have been previously tested and, if necessary, adapted to mice and are maintained on brain heart infusion (BHI) agar slants at 4° C. Tubes of BHI broth are inoculated from the slants and incubated for 18 hours at 37° C. Serial ten-fold dilutions of this culture are made in BHI broth. The bacterial suspensions used to infect mice are obtained by making the final ten-fold dilution in 5 percent aqueous hog gastric mucin (American Laboratories Incorporated). Mice are infected by an intraperitoneal injection of 0.75 ml. of the resulting suspension. The dilution of test organism selected (standard inoculum) is based on prior experience with that organism and is usually 10-100-fold more concentrated than the LD50 dilution, i.e., that concentration which when administered as described above causes 50 percent mortalities.
The antimicrobial test substance is dissolved at the desired concentration in a suitable vehicle (sterile water, unless otherwise specified) and four serial, two-fold dilutions of this solution are made with the vehicle.
In dosing the animals, all mice are considered to weigh 20 grams. The volume administered is always 0.5 ml. at 1 and 5 hours post-infection (total of 1.0 ml.), with half of the total dose given at each time.
Administration of Test Substances:
The test substance may be administered by any of the following routes:
2. Subcutaneously, at the nape of the neck,
3. Intramuscularly in the thigh,
4. Intravenously in the tail vein.
Female Swiss albino mice weighing 18 to 20 grams are divided randomly into groups of ten animals and housed one group to a cage. Food (standard mouse pellets) and water are supplied ad lib throughout the test. All animals are sacrificed at the conclusion of the test.
Group T0 is neither infected nor treated, but is observed for seven days. If more than one mortality occurs in this group, the data will be reviewed to determine is there is cause to invalidate the test.
Groups T1 through T4 are used to monitor the strength of the infection actually used in this experiment. These groups are infected but untreated. Group T1 is infected with the standard inoculum, and groups T2 through T4 are infected with successive ten-fold dilutions of the organism prepared such that only the final dilution in each case is made with 5 percent aqueous hog gastric mucin. These groups are observed for seven days, mortalities are recorded and used to determine the number of challenge LD50's (within ten-fold limits) present in the standard inoculum used to infect medicated groups of animals.
Groups T5 through T9 are infected intraperitoneally with the standard inoculum. Each group is treated with one of the two-fold dilutions of the test substance by a specified route of administration at 1 hour and 5 hours post infection. The animals are observed for seven days and mortalities are recorded.
Further sets of five groups of animals are infected and treated in the same manner as groups T5 through T9 for each additional test substance studied.
CD50's (the total dose, in mg./kg., required to cure half the animals) are calculated by standard statistical methods and are reported with 95 percent confidence limits where these are obtainable or annotated with PS (poor slope) where they are not.
This test is performed in primary and secondary variations. […]

E. coli (J) = assay: Anti-infective Test - Cure of Acute Mouse Bacterial Infection (mouse protection), E. coli; type: in vivo; details: E. coli (J) intraperitoneal infection in female Swiss albino mice; route I.V.; dosed 1 and 5 hours post-infection; observed seven days
Description: as §1, §2
Bacterial strains used in this test have been previously tested and, if necessary, adapted to mice and are maintained on brain heart infusion (BHI) agar slants at 4° C. Tubes of BHI broth are inoculated from the slants and incubated for 18 hours at 37° C. Serial ten-fold dilutions of this culture are made in BHI broth. The bacterial suspensions used to infect mice are obtained by making the final ten-fold dilution in 5 percent aqueous hog gastric mucin (American Laboratories Incorporated). […]
Groups T1 through T4 are used to monitor the strength of the infection actually used in this experiment. […] These groups are observed for seven days, mortalities are recorded and used to determine the number of challenge LD50's (within ten-fold limits) present in the standard inoculum used to infect medicated groups of animals.
Groups T5 through T9 are infected intraperitoneally with the standard inoculum. […] The animals are observed for seven days and mortalities are recorded. […]
CD50's (the total dose, in mg./kg., required to cure half the animals) are calculated by standard statistical methods and are reported with 95 percent confidence limits where these are obtainable or annotated with PS (poor slope) where they are not. […]

[1] = S. aureus (S) intraperitoneal infection in female Swiss albino mice, route I.V., observed seven days

Molecule	CD50 (curative dose50, total dose required to cure half the animals) (S. aureus; [1])	Percent Surviving Mice With Varying Drug Dose (S. aureus; S. aureus (S) infection in mice, route I.V., dose of this cell not printed as text)	CD50 (curative dose50, total dose required to cure half the animals) (S. aureus; S. aureus (SC) intraperitoneal infection in female Swiss albino mice, route cell is a drawing (not readable))	CD50 (curative dose50, total dose required to cure half the animals) (E. coli (J))	CD50 (curative dose50, total dose required to cure half the animals) (S. aureus; S. aureus (S) intraperitoneal infection in female Swiss albino mice, route S.C., observed seven days)
O--demethylristocetin aglycone [Compound 3]	9.3 (5.9-17.3) mg./kg.	–	–	–	–
COC(=O)[C@H]1NC(=O)[C@H]2NC(=O)[C@H](NC(=O)[C@@H]3NC(=O)[C@H]4NC(=O)[C@H](NC(=O)[C@H](N)c5ccc(O)c(c5)Oc5cc4cc(O)c5C)[C@H](O)c4ccc(cc4)Oc4cc3cc(c4O)Oc3ccc(cc3)[C@H]2O)c2ccc(O)c(c2)-c2c(O)cc(O)cc21 [Compound 2, Ristocetin aglycone]	–	90%	2.7 (1.8-4.1) mg./kg.	50 mg/kg	–
Ristocetin [Compound 1]	4.1 mg./kg. and 6.6 mg./kg. and 5.6 (4.2-7.5) mg./kg. and 6 mg./kg.	–	–	50 mg/kg	3.7 (2.4-5.7) mg./kg.
